Values of other authors, collected in US5981578A (priority 1997, dated 1999).

Conditions: in just a few days

Compound: O=C1O[C@H]([C@@H](O)CO)C(O)=C1O [Ascorbic acid, ascorbic acid]
- color development of aqueous preparations: develop colors, progressively, from light yellow to orange dark brown
